Experimental data: patent publication US20240208970A1, “SUBSTITUTED HYDANTOIN COMPOUNDS, METHODS FOR PREPARATION THEREOF AND USE THEREOF IN THE TREATMENT AND/OR PREVENTION OF A CORONA VIRUS DISEASE” (priority 2021, published 2024)

Molecular target: SARS-CoV-2 M^pro protease (Severe acute respiratory syndrome coronavirus 2 (2019-nCoV) (SARS-CoV-2), UniProt P0DTD1)
Test: biochemical
Type: biochemical
Conditions: for IC50: M^pro 75 nM, substrate 10 μM

Structure (SMILES) | IC50 (Tables 5B-5E) | further results
N#Cc1ccccc1C1CC2(C1)NC(=O)N(c1cncc3ccccc13)C2=O (centres unmarked) [Compound 24, 2-(7-(isoquinolin-4-yl)-6,8-dioxo-5,7-diazaspiro[3.4]octan-2-yl)benzonitrile] | 86 nM | 
O=C1NC2(CC(c3sccc3Br)C2)C(=O)N1c1cncc2ccccc12 (single isomer, unassigned) [Compound 44, 2-(3-bromothiophen-2-yl)-7-(isoquinolin-4-yl)-5,7-diazaspiro[3.4]octane-6,8-dione] | 81 nM | 
O=C1NC2(CC(c3ccsc3Cl)C2)C(=O)N1c1cncc2ccccc12 (single isomer, unassigned) [Compound 41, 2-(2-chlorothiophen-3-yl)-7-(isoquinolin-4-yl)-5,7-diazaspiro[3.4]octane-6,8-dione] | 81 nM | 
O=C1N(c2cncc3ccccc23)C(=O)C2(CC(C3CCC3)C2)N1Cc1ccn[nH]1 (centres unmarked) [Compound 80, 5-((1H-pyrazol-5-yl)methyl)-2-cyclobutyl-7-(isoquinolin-4-yl)-5,7-diazaspiro[3.4]octane-6,8-dione] | 3820 nM | 
O=C1NC2(CC(c3ccccc3Cl)C2)C(=O)N1c1c(Cl)ncc2ccccc12 (centres unmarked) [Compound 86, 7-(3-chloroisoquinolin-4-yl)-2-(2-chlorophenyl)-5,7-diazaspiro[3.4]octane-6,8-dione] |  | activity at […] (percent of control activity at 750 nM, read-out: % activity at 750 nM): 57%
O=C1NC2(CC(c3ccccc3F)C2)C(=O)N1c1cncc2ccccc12 (centres unmarked) [Compound 18, 2-(2-fluorophenyl)-7-(isoquinolin-4-yl)-5,7-diazaspiro[3.4]octane-6,8-dione] | 335 nM | 
O=C1NC2(CC(c3sccc3Cl)C2)C(=O)N1c1cncc2ccccc12 (single isomer, unassigned) [Compound 42, 2-(3-chlorothiophen-2-yl)-7-(isoquinolin-4-yl)-5,7-diazaspiro[3.4]octane-6,8-dione] | 185 nM | 
O=C1NC2(CC(c3ccccc3Cl)C2)C(=O)N1c1cncc2ccc(F)cc12 (centres unmarked) [Compound 54, 2-(2-chlorophenyl)-7-(6-fluoroisoquinolin-4-yl)-5,7-diazaspiro[3.4]octane-6,8-dione] | 66 nM | 
O=C1NC2(CC(c3ccccc3Cl)C2)C(=O)N1c1cncc2nc[nH]c12 (centres unmarked) [Compound 97, 2-(2-chlorophenyl)-7-(1H-imidazo[4,5-c]pyridin-7-yl)-5,7-diazaspiro[3.4]octane-6,8-dione] | 287 nM | 
O=C1NC2(CC(c3cccc(F)c3Cl)C2)C(=O)N1c1cncc2ccccc12 (single isomer, unassigned) [Compound 31, 2-(2-chloro-3-fluorophenyl)-7-(isoquinolin-4-yl)-5,7-diazaspiro[3.4]octane-6,8-dione] | 150 nM | 
CC1(c2ccccc2Cl)CC2(C1)NC(=O)N(c1cncc3ccccc13)C2=O (centres unmarked) [Compound 95, 2-(2-chlorophenyl)-7-(isoquinolin-4-yl)-2-methyl-5,7-diazaspiro[3.4]octane-6,8-dione] | 69 nM | 
O=C1NC2(CC(c3ccccc3Br)C2)C(=O)N1c1cncc2ccccc12 (single isomer, unassigned) [Compound 17, 2-(2-bromophenyl)-7-(isoquinolin-4-yl)-5,7-diazaspiro[3.4]octane-6,8-dione] | 79 nM | 
O=C1NC2(CC(c3c(Cl)cccc3Cl)C2)C(=O)N1c1cncc2ccccc12 (single isomer, unassigned) [Compound 28, 2-(2,6-dichlorophenyl)-7-(isoquinolin-4-yl)-5,7-diazaspiro[3.4]octane-6,8-dione] | 291 nM | 
O=C1NC2(CC(c3ccc(F)cc3Cl)C2)C(=O)N1c1cncc2ccccc12 (centres unmarked) [Compound 32, 2-(2-chloro-4-fluorophenyl)-7-(isoquinolin-4-yl)-5,7-diazaspiro[3.4]octane-6,8-dione] | 95 nM | 
O=C1NC2(CC(c3ccccc3C(F)(F)F)C2)C(=O)N1c1cncc2ccccc12 (centres unmarked) [Compound 22, 7-(isoquinolin-4-yl)-2-(2-(trifluoromethyl)phenyl)-5,7-diazaspiro[3.4]octane-6,8-dione] | 197 nM | 
O=C1N(c2cncc3ccccc23)C(=O)C2(CC(C3CCC3)C2)N1Cc1ncc[nH]1 (centres unmarked) [Compound 77, 5-((1H-imidazol-2-yl)methyl)-2-cyclobutyl-7-(isoquinolin-4-yl)-5,7-diazaspiro[3.4]octane-6,8-dione] | 2520 nM | 
O=C1NC2(CC(c3ccccc3Cl)C2)C(=O)N1c1cnnc2ccccc12 (centres unmarked) [Compound 94, 2-(2-chlorophenyl)-7-(cinnolin-4-yl)-5,7-diazaspiro[3.4]octane-6,8-dione] | 1800 nM | 
O=C1NC2(CC(c3cc(F)ccc3Cl)C2)C(=O)N1c1cncc2ccccc12 (single isomer, unassigned) [Compound 34, 2-(2-chloro-5-fluorophenyl)-7-(isoquinolin-4-yl)-5,7-diazaspiro[3.4]octane-6,8-dione] | 475 nM | 
O=C1NC2(CC(c3sccc3Cl)C2)C(=O)N1c1cncc2ccccc12 (single isomer, unassigned) [Compound 43, 2-(3-chlorothiophen-2-yl)-7-(isoquinolin-4-yl)-5,7-diazaspiro[3.4]octane-6,8-dione] | 59 nM | 
Cc1ccccc1C1CC2(C1)NC(=O)N(c1cncc3ccccc13)C2=O (centres unmarked) [Compound 23, 7-(isoquinolin-4-yl)-2-(o-tolyl)-5,7-diazaspiro[3.4]octane-6,8-dione] | 925 nM | 
O=C1N(c2cncc3ccccc23)C(=O)C2(CC(C3CCC3)C2)N1Cc1ccccn1 (centres unmarked) [Compound 76, 2-cyclobutyl-7-(isoquinolin-4-yl)-5-(pyridin-2-ylmethyl)-5,7-diazaspiro[3.4]octane-6,8-dione] | 2470 nM | 
CN1C(=O)N(c2cncc3ccccc23)C(=O)C12CC(c1ccccc1Br)C2 (centres unmarked) [Compound 67, 2-(2-bromophenyl)-7-(isoquinolin-4-yl)-5-methyl-5,7-diazaspiro[3.4]octane-6,8-dione] | 140 nM | 
Cc1c(Br)cncc1N1C(=O)NC2(CC(C3CCC3)C2)C1=O (centres unmarked) [Compound 6, 7-(5-bromo-4-methylpyridin-3-yl)-2-cyclobutyl-5,7-diazaspiro[3.4]octane-6,8-dione] |  | IC50 (Table 5A): 2000 nM
O=C1NC2(CC(c3ccccc3Cl)C2)C(=O)N1c1cncc2nccn12 (centres unmarked) [Compound 99, 2-(2-chlorophenyl)-7-(imidazo[1,2-a]pyrazin-5-yl)-5,7-diazaspiro[3.4]octane-6,8-dione] | 780 nM | 
Cc1cccnc1CN1C(=O)NC2(CC(C(C)(C)C)C2)C1=O (centres unmarked) [Compound 9, 2-tert-butyl-7-[(3-methylpyridin-2-yl)methyl]-5,7-diazaspiro[3.4]octane-6,8-dione] |  | IC50 (Table 5A): > 10000 nM
O=C1NC2(CC(c3ccccc3Cl)C2)C(=O)N1c1cccnc1 (centres unmarked) [Compound 100, 2-(2-chlorophenyl)-7-(pyridin-3-yl)-5,7-diazaspiro[3.4]octane-6,8-dione] | 295 nM | 
COc1ccc2cncc(N3C(=O)NC4(CC(C5CCC5)C4)C3=O)c2c1 (centres unmarked) [Compound 57, 2-cyclobutyl-7-(6-methoxyisoquinolin-4-yl)-5,7-diazaspiro[3.4]octane-6,8-dione] | 340 nM | 
COc1ccnc(F)c1N1C(=O)NC2(CC(c3ccccc3Cl)C2)C1=O (centres unmarked) [Compound 91, 2-(2-chlorophenyl)-7-(2-fluoro-4-methoxypyridin-3-yl)-5,7-diazaspiro[3.4]octane-6,8-dione] | > 50000 nM | 
Cc1c(Br)cncc1N1C(=O)NC2(CC(c3ccccc3)C2)C1=O (centres unmarked) [Compound 7, 7-(5-bromo-4-methylpyridin-3-yl)-2-phenyl-5,7-diazaspiro[3.4]octane-6,8-dione] |  | IC50 (Table 5A): 2000 nM
